From patent publication US20120064219A1, “EXTRUDED PARTICLES” (Firmenich SA, priority 2009, published 2012) come the findings set out here.

SMILES strings stand for the structures. Peptide text beside a SMILES is read from it.

This data set can be described thus: LC-MS analysis of saliva samples of panelists chewing the gums. The class given is in vivo. The procedure: 3 panelists were given various samples of chewing gum prepared above and instructed to chew the gums for 60 minutes. At various intervals, a saliva sample was taken from each panelist, diluted 50 times in water and then analysed by standard LC-MS to confirm the amount of sweetening component remaining in the mouth.

Setting [1] is: encapsulated form in chewing gum.

As to `COC(=O)[C@H](Cc1ccccc1)NC(=O)[C@@H](N)CC(=O)O` [aspartame] (H-Asp-Phe-OMe), the “release profile in saliva (in words)” value under setting [1] is “releasing at a surprisingly stable rate for up to 40 minutes”. Regarding `OC[C@H]1O[C@H](O[C@]2(CCl)O[C@H](CCl)[C@@H](O)[C@@H]2O)[C@H](O)[C@@H](O)[C@H]1Cl` [sucralose], the “release profile in saliva (in words)” value reads like this: under setting [1], “remains remarkably stable for at least until 20 minutes”; (unencapsulated form in chewing gum) “diminishes rapidly almost immediately”. For `CC1=CC(=O)[N-]S(=O)(=O)O1.[K+]` [Acesulfame K], where the note is “chewing gum, saliva”, the “effect of encapsulation on the release profile compared to the unencapsulated form” value is recorded as “little effect”.
